Measurements reported in patent US20240174662A1, “SMALL MOLECULE INHIBITORS OF SALT INDUCIBLE KINASES” (Janssen Biotech, Inc., priority 2021, published 2024).

The compounds below were run against T1, SIK2 (Homo sapiens (Human), UniProt Q9H0K1) (assay: SIK2 Enzymatic Assay Version 1 (ADP Glo)). Conditions: 80 μM ATP and 70 μM HDAC5tide final, ADPGlo luminescence.
Format: biochemical
Description: All steps were performed at room temperature. Compounds were pre-plated onto an assay plate using an Echo acoustic dispenser (Labcyte, E550 or E555) at 20 nL per well. Enzyme prepared in Assay Buffer at 0.6 nM (2× final concentration) was added at 2 μL per well using the Multidrop Combi (Thermo Fisher-used for all additions in this assay) to the assay plate, spun for 1 min at 800-850 rpm (Allegra 6KR Beckman Coulter centrifuge), and incubated with compound for 30 minutes. Assay Buffer containing 160 μM ATP and 140 μM HDAC5tide (2× of final concentration for each substrate) was added at 2 μL per well to the assay plate and then spun as above and incubated for 4 hours.
One column of wells was dedicated to a no-peptide negative control (containing only ATP). ADPGlo Reagent (prepared and aliquoted as per manufacturer instructions) was then added at 2 μL per well, spun and incubated for 40 min. ADPGlo Detection (prepared and aliquoted as per manufacturer instructions) was added at 2 μL per well to the assay plate, which was spun and incubated for at least 30 min. The plate was then read on the Pherastar (BMG Labtech) using a luminescence read. Gain was set by the 0.1 mM concentration of ADP wells in the ADP/ATP standard curve plate generated as per manufacturer instructions.

T1 sequence (Q9H0K1 whole entry, species assumed): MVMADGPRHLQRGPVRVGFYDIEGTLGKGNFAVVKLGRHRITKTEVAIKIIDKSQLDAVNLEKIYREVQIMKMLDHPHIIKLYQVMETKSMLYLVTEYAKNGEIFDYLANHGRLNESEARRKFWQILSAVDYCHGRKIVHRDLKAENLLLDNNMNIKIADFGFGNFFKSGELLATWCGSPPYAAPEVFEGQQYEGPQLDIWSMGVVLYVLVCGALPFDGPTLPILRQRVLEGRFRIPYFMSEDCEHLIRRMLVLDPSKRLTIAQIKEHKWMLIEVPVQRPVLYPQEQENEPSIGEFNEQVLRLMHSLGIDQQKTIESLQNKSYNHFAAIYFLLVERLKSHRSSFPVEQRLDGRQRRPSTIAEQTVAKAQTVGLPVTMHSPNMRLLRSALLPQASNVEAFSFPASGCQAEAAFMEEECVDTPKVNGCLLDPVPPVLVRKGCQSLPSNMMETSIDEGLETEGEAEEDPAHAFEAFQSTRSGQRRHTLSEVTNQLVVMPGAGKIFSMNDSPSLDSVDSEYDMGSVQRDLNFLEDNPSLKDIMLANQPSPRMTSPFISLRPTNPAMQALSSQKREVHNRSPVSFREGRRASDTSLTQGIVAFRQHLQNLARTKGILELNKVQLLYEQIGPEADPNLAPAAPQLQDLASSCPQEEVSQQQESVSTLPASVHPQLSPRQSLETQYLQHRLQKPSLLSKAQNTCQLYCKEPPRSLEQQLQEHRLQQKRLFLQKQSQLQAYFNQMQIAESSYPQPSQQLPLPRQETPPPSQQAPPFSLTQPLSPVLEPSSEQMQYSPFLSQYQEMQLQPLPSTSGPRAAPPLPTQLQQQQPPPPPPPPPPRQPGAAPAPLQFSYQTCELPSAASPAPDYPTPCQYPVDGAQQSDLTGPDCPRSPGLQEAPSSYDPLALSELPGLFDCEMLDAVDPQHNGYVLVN

**Q.** `Cc1oncc1-c1ccn2nc(NC(=O)C3CC3)cc2c1` [Example 486, N-[5-(5-methylisoxazol-4-yl)pyrazolo[1,5-a]pyridin-2-yl]cyclopropanecarboxamide] was tested. Which IC50 did it give?
**A.** Its IC50 is 39.7 nM.

**Q.** How did the IC50 turn out when `CN1CCO[C@H](COc2cnn(C)c2-c2ccn3nc(NC(=O)C4CC4)cc3c2)C1` [Example 487] was run?
**A.** Its IC50 is 12.9 nM.

**Q.** For `CN1CC[C@@H](Oc2cnn(C)c2-c2ccn3nc(NC(=O)C4CC4)cc3c2)C1` [Example 488, N-[5-[2-methyl-4-[(3R)-1-methylpyrrolidin-3-yl]oxy-pyrazol-3-yl]pyrazolo[1,5-a]pyridin-2-yl]cyclopropanecarboxamide], which IC50 is on record?
**A.** Its IC50 is 6.45 nM.

The compounds below were run against T1, SIK2 (assay: SIK2 Enzymatic Assay Version 2 (High ATP)). Conditions: 3 mM ATP and 200 μM HDAC5tide final, ADP-Glo Max luminescence.
Format: biochemical
How it was run: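 Run at room temperature; SIK2 enzyme at 6 nM (2× final) preincubated with compound 30 min before reaction. ADP formation detected by ADP-Glo Max (2 h reagent, 1 h detection) with luminescence read-out.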

**Q.** `Cc1cc(Nc2cn3cc(-c4c(OC[C@H]5CCN5C)cnn4C)ccc3n2)nc(C)n1` [Example 485, N-(2,6-dimethylpyrimidin-4-yl)-6-[2-methyl-4-[[(2R)-1-methylazetidin-2-yl]methoxy]pyrazol-3-yl]imidazo[1,2-a]pyridin-2-amine] was tested. Which IC50 did it give?
**A.** Its IC50 is 1.1 nM.

**Q.** With `CN1CCO[C@H](COc2cnn(C)c2-c2ccn3nc(NC(=O)C4CC4)cc3c2)C1` [Example 487] as the compound, how does the IC50 read?
**A.** The IC50 was 334 nM.

**Q.** Which IC50 does the source give for `CN1CC[C@@H](Oc2cnn(C)c2-c2ccn3nc(NC(=O)C4CC4)cc3c2)C1` [Example 488, N-[5-[2-methyl-4-[(3R)-1-methylpyrrolidin-3-yl]oxy-pyrazol-3-yl]pyrazolo[1,5-a]pyridin-2-yl]cyclopropanecarboxamide] here?
**A.** The IC50 was 424 nM.

**Q.** How did the IC50 turn out when `CN1CC[C@@H](COc2cnn(CC3CC3)c2-c2ccn3nc(NC(=O)C4CC4)cc3c2)C1` [Example 489, N-[5-[2-(cyclopropylmethyl)-4-[[(3R)-1-methylpyrrolidin-3-yl]methoxy]pyrazol-3-yl]pyrazolo[1,5-a]pyridin-2-yl]cyclopropanecarboxamide] was run?
**A.** The IC50 was 13600 nM.

**Q.** With `CCCn1ncc(OC[C@@H]2CCN(C)C2)c1-c1ccn2nc(NC(=O)C3CC3)cc2c1` [Example 490, N-[5-[4-[[(3R)-1-methylpyrrolidin-3-yl]methoxy]-2-propyl-pyrazol-3-yl]pyrazolo[1,5-a]pyridin-2-yl]cyclopropanecarboxamide] as the compound, how does the IC50 read?
**A.** Its IC50 is 7330 nM.

**Q.** With `CN1CC[C@@H](COc2cnn(Cc3ccccc3)c2-c2ccn3nc(NC(=O)C4CC4)cc3c2)C1` [Example 491, N-[5-[2-benzyl-4-[[(3R)-1-methylpyrrolidin-3-yl]methoxy]pyrazol-3-yl]pyrazolo[1,5-a]pyridin-2-yl]cyclopropanecarboxamide] as the compound, how does the IC50 read?
**A.** The IC50 was > 50000 nM.

**Q.** For `CN1CCC(Oc2cnn(C)c2-c2ccn3nc(NC(=O)C4CC4)cc3c2)CC1` [Example 492, N-[5-[2-methyl-4-[(1-methyl-4-piperidyl)oxy]pyrazol-3-yl]pyrazolo[1,5-a]pyridin-2-yl]cyclopropanecarboxamide], which IC50 is on record?
**A.** The IC50 was 432 nM.

**Q.** For `Cc1onc(OC2CCN(C)CC2)c1-c1ccn2nc(NC(=O)C3CC3)cc2c1` [Example 493, N-[5-[5-methyl-3-[(1-methyl-4-piperidyl)oxy]isoxazol-4-yl]pyrazolo[1,5-a]pyridin-2-yl]cyclopropanecarboxamide], which IC50 is on record?
**A.** The IC50 was 236 nM.

**Q.** For `Cc1onc(OC2CN(C)C2)c1-c1ccn2nc(NC(=O)C3CC3)cc2c1` [Example 494, N-[5-[5-methyl-3-(1-methylazetidin-3-yl)oxy-isoxazol-4-yl]pyrazolo[1,5-a]pyridin-2-yl]cyclopropanecarboxamide], which IC50 is on record?
**A.** Its IC50 is 424 nM.

**Q.** Which IC50 does the source give for `Cc1onc(OC[C@H]2COCCN2)c1-c1ccn2nc(NC(=O)C3CC3)cc2c1` [Example 496, N-[5-[5-methyl-3-[[(3R)-morpholin-3-yl]methoxy]isoxazol-4-yl]pyrazolo[1,5-a]pyridin-2-yl]cyclopropanecarboxamide] here?
**A.** The IC50 was 995 nM.

**Q.** With `Cc1onc(OC[C@@H]2COCCN2)c1-c1ccn2nc(NC(=O)C3CC3)cc2c1` [Example 497] as the compound, how does the IC50 read?
**A.** Its IC50 is 2530 nM.

**Q.** How did the IC50 turn out when `Cc1onc(OC[C@@H]2CCN2C)c1-c1ccn2nc(NC(=O)C3CC3)cc2c1` [Example 498] was run?
**A.** Its IC50 is 232 nM.

**Q.** How did the IC50 turn out when `CN1C[C@@H](F)[C@@H](Oc2cnn(C)c2-c2ccn3nc(NC(=O)C4CC4)cc3c2)C1` [Example 499] was run?
**A.** The IC50 was 720 nM.

**Q.** `Cc1onc(OC[C@@H]2CCCN2C)c1-c1ccn2nc(NC(=O)C3CC3)cc2c1` [Example 500, N-[5-[5-methyl-3-[[(2S)-1-methylpyrrolidin-2-yl]methoxy]isoxazol-4-yl]pyrazolo[1,5-a]pyridin-2-yl]cyclopropanecarboxamide] was tested. Which IC50 did it give?
**A.** The IC50 was 431 nM.

**Q.** Which IC50 does the source give for `Cc1onc(OC[C@@H]2CCCCN2C)c1-c1ccn2nc(NC(=O)C3CC3)cc2c1` [Example 501, N-[5-[5-methyl-3-[[(2S)-1-methyl-2-piperidyl]methoxy]isoxazol-4-yl]pyrazolo[1,5-a]pyridin-2-yl]cyclopropanecarboxamide] here?
**A.** The IC50 was 355 nM.

**Q.** With `Cc1onc(OC[C@H]2CCCCN2C)c1-c1ccn2nc(NC(=O)C3CC3)cc2c1` [Example 502, N-[5-[5-methyl-3-[[(2R)-1-methyl-2-piperidyl]methoxy]isoxazol-4-yl]pyrazolo[1,5-a]pyridin-2-yl]cyclopropanecarboxamide] as the compound, how does the IC50 read?
**A.** The IC50 was 1580 nM.

**Q.** For `CN1CC[C@@H]1COc1cnn(C)c1-c1ccn2nc(N)cc2c1` [Example 503, 5-[2-methyl-4-[[(2R)-1-methylazetidin-2-yl]methoxy]pyrazol-3-yl]pyrazolo[1,5-a]pyridin-2-amine], which IC50 is on record?
**A.** The IC50 was 442 nM.

**Q.** How did the IC50 turn out when `Cn1ncc(O[C@H]2CNC[C@H]2F)c1-c1ccn2nc(NC(=O)C3CC3)cc2c1` [Example 504, N-[5-[4-[(3S,4R)-4-fluoropyrrolidin-3-yl]oxy-2-methyl-pyrazol-3-yl]pyrazolo[1,5-a]pyridin-2-yl]cyclopropanecarboxamide] was run?
**A.** The IC50 was 466 nM.

**Q.** `CN1CCCC[C@H]1COc1cnn(C)c1-c1ccn2nc(NC(=O)C3CC3)cc2c1` [Example 505] was tested. Which IC50 did it give?
**A.** Its IC50 is 1380 nM.

**Q.** Which IC50 does the source give for `Cn1ncc(OCC2(N)CC2)c1-c1ccn2nc(NC(=O)C3CC3)cc2c1` [Example 506, N-[5-[4-[(1-aminocyclopropyl)methoxy]-2-methyl-pyrazol-3-yl]pyrazolo[1,5-a]pyridin-2-yl]cyclopropanecarboxamide] here?
**A.** Its IC50 is 350 nM.

**Q.** For `CN1CCCC[C@@H]1COc1cnn(C)c1-c1ccn2nc(NC(=O)C3CC3)cc2c1` [Example 507, N-[5-[2-methyl-4-[[(2R)-1-methyl-2-piperidyl]methoxy]pyrazol-3-yl]pyrazolo[1,5-a]pyridin-2-yl]cyclopropanecarboxamide], which IC50 is on record?
**A.** Its IC50 is 1700 nM.
